Experimental data published in patent publication US20170233345A1, “SUBSTITUTED QUINOLINE-4-CARBOXAMIDES AND USE THEREOF” (BAYER PHARMA AKTIENGESELLSCHAFT, priority 2014, published 2017).
Counter-ions that a name gives are not always drawn.

Tested on: recombinant guanylate cyclase reporter cell line
Experiment: Effect on a recombinant guanylate cyclase reporter cell line
Assay type: cell-based
Details: in some cases mean values from individual determinations, read-out: MEC (minimum effective concentration)
Procedure: B-2. Effect on a Recombinant Guanylate Cyclase Reporter Cell Line
The cellular activity of the compounds according to the invention is determined using a recombinant guanylate cyclase reporter cell line, as described in F. Wunder et al., Anal. Biochem. 339, 104-112 (2005).
Representative MEC values (MEC=minimum effective concentration) for the compounds of the invention are shown in the table below (in some cases as mean values from individual determinations): […]

Row | SMILES | minimal effective concentration
1 | O=C(Nc1ccnc2ccc(F)cc12)c1ccnc2c(OCc3c(F)cccc3F)cccc12 [Example 2, 8-[(2,6-Difluorobenzyl)oxy]-N-(6-fluoroquinolin-4-yl)quinoline-4-carboxamide] | 10 µM
2 | O=C(NC1c2ccccc2CC1O)c1ccnc2c(OCc3c(F)cccc3F)cccc12 (stereo not drawn) [Example 9] | 3 µM
3 | O=C(NCCC1(O)CCCC1)c1ccnc2c(OCc3c(F)cccc3F)cccc12 [Example 8, 8-[(2,6-Difluorobenzyl)oxy]-N-[2-(1-hydroxycyclopentyl)ethyl]quinoline-4-carboxamide] | 3 µM
4 | COc1ccc(CC(C)(N)CNC(=O)c2ccnc3c(OCc4c(F)cccc4F)cccc23)cc1 (racemic) [Example 35, rac-N-[2-amino-3-(4-methoxyphenyl)-2-methylpropyl]-8-[(2,6-difluorobenzyl)oxy]quinoline-4-carboxamide trifluoroacetate] | 3 µM
5 | Cc1cc(OCc2c(F)cccc2F)c2nccc(C(=O)N[C@@](C)(CO)c3nnc(C)s3)c2c1 [Example 48, ent-8-[(2,6-Difluorobenzyl)oxy]-N-[(2S)-1-hydroxy-2-(5-methyl-1,3,4-thiadiazol-2-yl)propan-2-yl]-6-methylquinoline-4-carboxamide] | 3 µM
6 | Cc1[nH]nc(C(F)(F)F)c1NC(=O)c1ccnc2c(OCc3c(F)cccc3F)cccc12 [Example 19] | 3 µM
7 | CC[C@](C)(N)CNC(=O)c1cnc2c(OCc3c(F)cccc3F)cccc2c1 [Example 41, N-[(2S)-2-Amino-2-methylbutyl]-8-[(2,6-difluorobenzyl)oxy]quinoline-3-carboxamide] | 10 µM
8 | Cc1cc(C(=O)NCC(C)(N)CCC(F)(F)F)c2cccc(OCc3c(F)cccc3F)c2n1 (single isomer, unassigned; enantiomer b) [Example 43, ent-N-(2-Amino-5,5,5-trifluoro-2-methylpentyl)-8-[(2,6-difluorobenzyl)oxy]-2-methylquinoline-4-carboxamide (Enantiomer B)] | 1 µM
9 | COc1ccc(CC(C)(N)CNC(=O)c2ccnc3c(OCc4c(F)cccc4F)cccc23)cc1 (single isomer, unassigned; enantiomer b) [Example 37, ent-N-[2-Amino-3-(4-methoxyphenyl)-2-methylpropyl]-8-[(2,6-difluorobenzyl)oxy]quinoline-4-carboxamide (Enantiomer B)] | 10 µM
10 | CC(N)(CCC(F)(F)F)CNC(=O)c1ccnc2c(OCc3c(F)cccc3F)cccc12 (single isomer, unassigned; enantiomer b) [Example 6, ent-N-(2-Amino-5,5,5-trifluoro-2-methylpentyl)-8-[(2,6-difluorobenzyl)oxy[quinoline-4-carboxamide (Enantiomer B)] | 0.3 µM
11 | CC1(C)CC(NC(=O)c2ccnc3c(OCc4c(F)cccc4F)cccc23)CC(C)(C)N1 [Example 12] | 10 µM
12 | CCCC[C@H](CO)NC(=O)c1ccnc2c(OCc3c(F)cccc3F)cccc12 [Example 4, 8-[(2,6-Difluorobenzyl)oxy]-N-[(2R)-1-hydroxyhexan-2-yl]quinoline-4-carboxamide] | 3 µM
13 | O=C(NC1CCCc2ccccc21)c1ccnc2c(OCc3c(F)cccc3F)cccc12 (stereo not drawn) [Example 29] | 0.3 µM
14 | CN(C)CCNC(=O)c1ccnc2c(OCc3c(F)cccc3F)cccc12 [Example 14] | 10 µM
15 | O=C(NCCN(CC(F)F)C1CC1)c1ccnc2c(OCc3c(F)cccc3F)cccc12 [Example 23] | 3 µM
16 | O=C(NC1(c2ccc(F)cc2)CC1)c1cnc2c(OCc3c(F)cccc3F)cccc2c1 [Example 39, 8-[(2,6-Difluorobenzyl)oxy]-N-[1-(4-fluorophenyl)cyclopropyl]quinoline-3-carboxamide] | 1 µM
17 | Cc1nn(Cc2ccc(F)cc2)c(C)c1NC(=O)c1ccnc2c(OCc3c(F)cccc3F)cccc12 [Example 17] | 10 µM
18 | O=C(NCc1ccc(Cl)nc1)c1ccnc2c(OCc3c(F)cccc3F)cccc12 [Example 20] | 3 µM
19 | CN1CCC(NC(=O)c2ccnc3c(OCc4c(F)cccc4F)cccc23)c2ccccc21 (stereo not drawn) [Example 27] | 1 µM
20 | CC(N)(CNC(=O)c1ccnc2c(OCc3c(F)cccc3F)cccc12)CC(F)F (single isomer, unassigned; enantiomer b) [Example 7, ent-N-(2-Amino-4,4-difluoro-2-methylbutyl)-8-[(2,6-difluorobenzyl)oxy]quinoline-4-carboxamide (Enantiomer B)] | 2 µM
21 | O=C(NC(CO)c1ccc(F)cc1)c1ccnc2c(OCc3c(F)cccc3F)cccc12 (stereo not drawn) [Example 33] | 2 µM
22 | O=C(N[C@@H](CO)C(=O)Nc1ccc2ccccc2c1)c1ccnc2c(OCc3c(F)cccc3F)cccc12 [Example 10] | 10 µM
23 | O=C(NCC1(O)CC1)c1ccnc2c(OCc3c(F)cccc3F)cccc12 [Example 22] | 3 µM

Row | SMILES | minimal effective concentration
24 | N#CC(NC(=O)c1ccnc2c(OCc3c(F)cccc3F)cccc12)c1ccc(Cl)cc1 (stereo not drawn) [Example 31] | 3 µM
25 | N#C[C@H]1CC[C@H](CNC(=O)c2ccnc3c(OCc4c(F)cccc4F)cccc23)CC1 [Example 44] | 10 µM
26 | CCC(CO)(CO)NC(=O)c1ccnc2c(OCc3c(F)cccc3F)cccc12 [Example 25] | 10 µM
27 | CCC(C)(N)CNC(=O)c1cc(C)nc2c(OCc3c(F)cccc3F)cccc12 (single isomer, unassigned; enantiomer b) [Example 47, ent-N-(2-Amino-2-methylbutyl)-8-[(2,6-difluorobenzyl)oxy]-2-methylquinoline-4-carboxamide (Enantiomer B)] | 3 µM
28 | CC(COCC(F)(F)F)NC(=O)c1ccnc2c(OCc3c(F)cccc3F)cccc12 (stereo not drawn) [Example 21] | 3 µM
29 | CCCC[C@H](C)NC(=O)c1ccnc2c(OCc3c(F)cccc3F)cccc12 [Example 3, 8-[(2,6-Difluorobenzyl)oxy]-N-[(2S)-hexan-2-yl]quinoline-4-carboxamide] | 1 µM
30 | O=C(NCc1ccccc1-c1cccnc1)c1ccnc2c(OCc3c(F)cccc3F)cccc12 [Example 15] | 10 µM
31 | Cc1cc(OCc2c(F)cccc2F)c2nccc(C(=O)NC(C)(CO)c3nnn(C(F)F)n3)c2c1 (racemic) [Example 49, rac-8-[(2,6-Difluorobenzyl)oxy]-N-{2-[2-(difluoromethyl)-2H-tetrazol-5-yl]-1-hydroxypropan-2-yl}-6-methylquinoline-4-carboxamide] | 2 µM
32 | O=C(NC1(c2ccc(F)c(F)c2)CC1)c1ccnc2c(OCc3c(F)cccc3F)cccc12 [Example 1, 8-[(2,6-Difluorobenzyl)oxy]-N-[1-(3,4-difluorophenyl)cyclopropyl]quinoline-4-carboxamide] | 3 µM
33 | O=C(NCc1ccccc1-n1ccnc1)c1ccnc2c(OCc3c(F)cccc3F)cccc12 [Example 28] | 3 µM
34 | O=C(NC1CC1c1ccccc1)c1ccnc2c(OCc3c(F)cccc3F)cccc12 (stereo not drawn) [Example 13] | 10 µM
35 | CC[C@](C)(N)CNC(=O)c1ccnc2c(OCc3c(F)cccc3F)cccc12 [Example 5, N-[(2S)-2-Amino-2-methylbutyl]-8-[(2,6-difluorobenzyl)oxy]quinoline-4-carboxamide] | 3 µM
36 | CC(NC(=O)c1ccnc2c(OCc3c(F)cccc3F)cccc12)c1nc(C(F)(F)F)no1 (stereo not drawn) [Example 18] | 3 µM
37 | O=C(NCCN1CCOCC1)c1ccnc2c(OCc3c(F)cccc3F)cccc12 [Example 16] | 10 µM
38 | CCC(N)(CC)CNC(=O)c1ccnc2c(OCc3c(F)cccc3F)cccc12 [Example 11] | 3 µM
39 | COc1ccc(CC(C)(N)CNC(=O)c2ccnc3c(OCc4c(F)cccc4F)cccc23)cc1 (single isomer, unassigned; enantiomer a) [Example 36, ent-N-[2-Amino-3-(4-methoxyphenyl)-2-methylpropyl]-8-[(2,6-difluorobenzyl)oxy]quinoline-4-carboxamide (Enantiomer A)] | 3 µM
40 | O=C(Nc1cnn(CCO)c1)c1ccnc2c(OCc3c(F)cccc3F)cccc12 [Example 30] | 10 µM
41 | O=C(NC1CCOc2ncccc21)c1ccnc2c(OCc3c(F)cccc3F)cccc12 (stereo not drawn) [Example 34] | 1 µM
42 | CCCC[C@H](CO)NC(=O)c1cnc2c(OCc3c(F)cccc3F)cccc2c1 [Example 38, 8-[(2,6-Difluorobenzyl)oxy]-N-[(2R)-1-hydroxyhexan-2-yl]quinoline-3-carboxamide] | 3 µM
43 | CC(C)(O)C(CCC(F)(F)C(F)(F)F)NC(=O)c1ccnc2c(OCc3c(F)cccc3F)cccc12 (single isomer, unassigned; ent-8) [Example 32, ent-8-[(2,6-Difluorobenzyl)oxy]-N-(6,6,7,7,7-pentafluoro-2-hydroxy-2-methylheptan-3-yl)quinoline-4-carboxamide (Enantiomer A)] | 2 µM
44 | CC(N)(CCC(F)(F)F)CNC(=O)c1cnc2c(OCc3c(F)cccc3F)cccc2c1 (single isomer, unassigned; enantiomer b) [Example 40, ent-N-(2-Amino-5,5,5-trifluoro-2-methylpentyl)-8-[(2,6-difluorobenzyl)oxy]quinoline-3-carboxamide (Enantiomer B)] | 10 µM
45 | CC(N)(CNC(=O)c1ccnc2c(OCc3c(F)cccc3F)cccc12)C1CC1 (racemic) [Example 42, rac-N-(2-Amino-2-cyclopropylpropyl)-8-[(2,6-difluorobenzyl)oxy]quinoline-4-carboxamide] | 10 µM
